According to US12629371B2, “Compositions and methods for inhibiting kinases” (Inhibikase Therapeutics, Inc., priority 2016, dated 2026):
Where two headings read alike, the source gives them in different places.

Experiments:
Type in all cases: biochemical
PDGFRa = PDGFRa (Homo sapiens, UniProt P16234); experiment: Inhibition profile at 500 nM: PDGFRa; details: 500 nM test compound, read-out: Percent inhibition PDGFRa
Protocol: (§1) Then enzyme substrate is added as 10 μl of 2.5×FAM-labeled peptide+ATP solution to each well of the 384-well assay plate The reaction is allowed to proceed at 28° C. and quenched with the addition of 25 μl of stop buffer. The release of fluorescent FAM is quantitated as Percent inhibition=(max−conversion)/(max−min)*100.sp; “max” stands for DMSO control; “min” stands for low control. Convert conversion values to inhibition values. Percent inhibition=(max−conversion)/(max−min)*100. “max” stands for DMSO control; “min” stands for low control.

LCK = LCK (Homo sapiens, UniProt P06239); experiment: Inhibition profile at 500 nM: LCK; details: 500 nM test compound, read-out: Percent inhibition LCK
Protocol: as §1

SRC = SRC (Homo sapiens, UniProt P12931); experiment: Inhibition profile at 500 nM: SRC; details: 500 nM test compound, read-out: Percent inhibition SRC
Protocol: as §1

ABL = ABL (Homo sapiens, UniProt P00519); experiment: Inhibition profile at 500 nM: ABL / Abl1; details: 500 nM test compound; Table 1; read-out: Percent inhibition ABL
Protocol: as §1

FLT3 = FLT3 (Homo sapiens, UniProt P36888); experiment: Inhibition profile at 500 nM: FLT3; details: 500 nM test compound, read-out: Percent inhibition FLT3
Protocol: as §1

KIT = KIT (Homo sapiens, UniProt P10721); experiment: Inhibition profile at 500 nM: KIT; details: 500 nM test compound; Table 1; read-out: Percent inhibition KIT
Protocol: as §1

PDGFRb = PDGFRb (Homo sapiens, UniProt P09619); experiment: Inhibition profile at 500 nM: PDGFRb; details: 500 nM test compound, read-out: Percent inhibition PDGFRb
Protocol: as §1

FGR = FGR (Homo sapiens, UniProt P09769); experiment: Inhibition profile at 500 nM: FGR; details: 500 nM test compound, read-out: Percent inhibition FGR
Protocol: as §1

LYNA = LYNA (Homo sapiens, UniProt P07948); experiment: Inhibition profile at 500 nM: LYNA; details: 500 nM test compound, read-out: Percent inhibition LYNA
Protocol: as §1

ARG/Abl2 = ARG/Abl2 (Homo sapiens, UniProt P42684); experiment: Inhibition profile at 500 nM: ARG/Abl2; details: 500 nM test compound
Protocol: as §1

FES = FES (Homo sapiens, UniProt P07332); experiment: Inhibition profile at 500 nM: FES; details: 500 nM test compound, read-out: Percent inhibition FES
Protocol: as §1

FYN = FYN (Homo sapiens, UniProt P06241); experiment: Inhibition profile at 500 nM: FYN; details: 500 nM test compound, read-out: Percent inhibition FYN
Protocol: as §1

JNK2 = JNK2 (Homo sapiens, UniProt P45984); experiment: Inhibition profile at 500 nM: JNK2; details: 500 nM test compound, read-out: Percent inhibition JNK2
Protocol: as §1

YES = YES (Homo sapiens, UniProt P07947); experiment: Inhibition profile at 500 nM: YES; details: 500 nM test compound; Table 2; read-out: Percent inhibition YES
Protocol: as §1

JNK1 = JNK1 (Homo sapiens, UniProt P45983); experiment: Inhibition profile at 500 nM: JNK1; details: 500 nM test compound; Table 2; read-out: Percent inhibition JNK1
Protocol: as §1

CMT = experiment: Inhibition profile at 500 nM: CMT; details: 500 nM test compound; Table 2
Protocol: as §1

Chain of PDGFRa (P16234 24-1089): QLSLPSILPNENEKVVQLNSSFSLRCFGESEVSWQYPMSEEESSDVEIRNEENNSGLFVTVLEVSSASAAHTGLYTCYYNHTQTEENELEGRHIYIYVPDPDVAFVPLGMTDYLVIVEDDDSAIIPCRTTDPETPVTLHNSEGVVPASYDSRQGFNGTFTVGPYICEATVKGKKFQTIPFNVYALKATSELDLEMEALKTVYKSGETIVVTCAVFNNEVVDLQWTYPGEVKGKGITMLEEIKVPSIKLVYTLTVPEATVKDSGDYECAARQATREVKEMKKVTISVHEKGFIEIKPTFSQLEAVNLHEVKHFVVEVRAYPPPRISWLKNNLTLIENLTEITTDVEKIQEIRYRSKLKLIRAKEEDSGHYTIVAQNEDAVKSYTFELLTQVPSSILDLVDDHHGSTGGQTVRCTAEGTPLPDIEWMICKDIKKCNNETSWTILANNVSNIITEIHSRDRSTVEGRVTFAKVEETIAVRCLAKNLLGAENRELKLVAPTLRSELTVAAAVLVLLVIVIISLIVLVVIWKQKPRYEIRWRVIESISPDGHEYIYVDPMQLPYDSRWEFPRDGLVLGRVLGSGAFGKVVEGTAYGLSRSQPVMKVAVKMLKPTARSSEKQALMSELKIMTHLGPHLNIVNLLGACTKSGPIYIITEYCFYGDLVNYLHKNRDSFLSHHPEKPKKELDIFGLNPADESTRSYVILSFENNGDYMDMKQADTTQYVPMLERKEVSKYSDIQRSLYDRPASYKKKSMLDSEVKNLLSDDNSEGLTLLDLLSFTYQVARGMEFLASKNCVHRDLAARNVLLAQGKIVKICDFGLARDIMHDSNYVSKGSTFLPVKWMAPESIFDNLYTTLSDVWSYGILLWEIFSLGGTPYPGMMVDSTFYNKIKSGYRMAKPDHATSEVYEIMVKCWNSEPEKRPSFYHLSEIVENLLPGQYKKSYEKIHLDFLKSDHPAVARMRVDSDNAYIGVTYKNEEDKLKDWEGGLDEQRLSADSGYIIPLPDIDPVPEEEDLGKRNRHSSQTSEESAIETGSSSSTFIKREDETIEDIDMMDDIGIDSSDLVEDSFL
Chain of FLT3 (P36888 27-993): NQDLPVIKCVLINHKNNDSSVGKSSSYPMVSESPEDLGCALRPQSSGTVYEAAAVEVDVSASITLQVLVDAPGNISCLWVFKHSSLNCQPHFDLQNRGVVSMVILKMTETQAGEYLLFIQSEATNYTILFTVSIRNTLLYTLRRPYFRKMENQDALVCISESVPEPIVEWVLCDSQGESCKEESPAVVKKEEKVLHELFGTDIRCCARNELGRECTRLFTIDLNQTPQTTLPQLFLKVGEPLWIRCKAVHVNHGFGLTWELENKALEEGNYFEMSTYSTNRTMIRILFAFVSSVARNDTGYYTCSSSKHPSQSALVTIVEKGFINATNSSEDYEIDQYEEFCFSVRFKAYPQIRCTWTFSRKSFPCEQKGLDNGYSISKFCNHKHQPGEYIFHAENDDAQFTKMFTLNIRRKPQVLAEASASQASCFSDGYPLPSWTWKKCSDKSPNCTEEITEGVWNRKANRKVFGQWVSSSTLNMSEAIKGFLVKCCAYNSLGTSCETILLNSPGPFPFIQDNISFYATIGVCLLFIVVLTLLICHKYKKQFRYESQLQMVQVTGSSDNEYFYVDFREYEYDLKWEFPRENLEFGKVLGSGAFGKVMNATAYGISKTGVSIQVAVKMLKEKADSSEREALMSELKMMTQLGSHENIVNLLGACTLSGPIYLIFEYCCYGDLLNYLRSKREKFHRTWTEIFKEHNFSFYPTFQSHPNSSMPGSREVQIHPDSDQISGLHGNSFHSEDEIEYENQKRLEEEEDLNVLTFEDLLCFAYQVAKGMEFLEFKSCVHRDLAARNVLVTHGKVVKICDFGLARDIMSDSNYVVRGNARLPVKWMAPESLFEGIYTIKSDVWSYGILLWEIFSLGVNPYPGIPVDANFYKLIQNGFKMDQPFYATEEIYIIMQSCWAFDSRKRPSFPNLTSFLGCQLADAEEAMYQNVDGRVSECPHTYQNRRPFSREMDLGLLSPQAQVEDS
Chain of LYNA (P07948 whole entry): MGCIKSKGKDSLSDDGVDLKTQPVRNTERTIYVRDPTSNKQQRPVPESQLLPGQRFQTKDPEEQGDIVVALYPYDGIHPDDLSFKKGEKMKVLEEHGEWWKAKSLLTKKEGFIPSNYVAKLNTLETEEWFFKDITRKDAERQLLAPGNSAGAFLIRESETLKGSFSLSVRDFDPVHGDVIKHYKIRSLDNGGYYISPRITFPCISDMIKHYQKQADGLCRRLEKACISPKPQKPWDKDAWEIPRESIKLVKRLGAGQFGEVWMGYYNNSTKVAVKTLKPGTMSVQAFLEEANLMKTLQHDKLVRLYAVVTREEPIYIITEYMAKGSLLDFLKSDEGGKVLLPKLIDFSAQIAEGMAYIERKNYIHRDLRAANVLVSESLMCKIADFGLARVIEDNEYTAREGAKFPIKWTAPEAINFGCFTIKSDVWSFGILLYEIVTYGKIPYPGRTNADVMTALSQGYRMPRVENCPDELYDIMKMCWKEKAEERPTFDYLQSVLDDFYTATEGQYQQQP
Chain of JNK2 (P45984 whole entry): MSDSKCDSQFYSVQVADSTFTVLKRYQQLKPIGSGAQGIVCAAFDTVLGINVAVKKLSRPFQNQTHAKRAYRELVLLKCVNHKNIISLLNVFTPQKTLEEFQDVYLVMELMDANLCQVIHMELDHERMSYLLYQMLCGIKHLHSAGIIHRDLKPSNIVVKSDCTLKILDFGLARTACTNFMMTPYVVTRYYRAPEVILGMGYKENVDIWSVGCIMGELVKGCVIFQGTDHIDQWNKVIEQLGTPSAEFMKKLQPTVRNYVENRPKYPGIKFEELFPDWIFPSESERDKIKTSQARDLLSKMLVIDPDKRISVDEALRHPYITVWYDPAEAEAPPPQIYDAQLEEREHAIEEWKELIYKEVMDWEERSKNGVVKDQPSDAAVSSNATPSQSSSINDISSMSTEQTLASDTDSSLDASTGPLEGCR
Chain of ARG/Abl2 (P42684 whole entry): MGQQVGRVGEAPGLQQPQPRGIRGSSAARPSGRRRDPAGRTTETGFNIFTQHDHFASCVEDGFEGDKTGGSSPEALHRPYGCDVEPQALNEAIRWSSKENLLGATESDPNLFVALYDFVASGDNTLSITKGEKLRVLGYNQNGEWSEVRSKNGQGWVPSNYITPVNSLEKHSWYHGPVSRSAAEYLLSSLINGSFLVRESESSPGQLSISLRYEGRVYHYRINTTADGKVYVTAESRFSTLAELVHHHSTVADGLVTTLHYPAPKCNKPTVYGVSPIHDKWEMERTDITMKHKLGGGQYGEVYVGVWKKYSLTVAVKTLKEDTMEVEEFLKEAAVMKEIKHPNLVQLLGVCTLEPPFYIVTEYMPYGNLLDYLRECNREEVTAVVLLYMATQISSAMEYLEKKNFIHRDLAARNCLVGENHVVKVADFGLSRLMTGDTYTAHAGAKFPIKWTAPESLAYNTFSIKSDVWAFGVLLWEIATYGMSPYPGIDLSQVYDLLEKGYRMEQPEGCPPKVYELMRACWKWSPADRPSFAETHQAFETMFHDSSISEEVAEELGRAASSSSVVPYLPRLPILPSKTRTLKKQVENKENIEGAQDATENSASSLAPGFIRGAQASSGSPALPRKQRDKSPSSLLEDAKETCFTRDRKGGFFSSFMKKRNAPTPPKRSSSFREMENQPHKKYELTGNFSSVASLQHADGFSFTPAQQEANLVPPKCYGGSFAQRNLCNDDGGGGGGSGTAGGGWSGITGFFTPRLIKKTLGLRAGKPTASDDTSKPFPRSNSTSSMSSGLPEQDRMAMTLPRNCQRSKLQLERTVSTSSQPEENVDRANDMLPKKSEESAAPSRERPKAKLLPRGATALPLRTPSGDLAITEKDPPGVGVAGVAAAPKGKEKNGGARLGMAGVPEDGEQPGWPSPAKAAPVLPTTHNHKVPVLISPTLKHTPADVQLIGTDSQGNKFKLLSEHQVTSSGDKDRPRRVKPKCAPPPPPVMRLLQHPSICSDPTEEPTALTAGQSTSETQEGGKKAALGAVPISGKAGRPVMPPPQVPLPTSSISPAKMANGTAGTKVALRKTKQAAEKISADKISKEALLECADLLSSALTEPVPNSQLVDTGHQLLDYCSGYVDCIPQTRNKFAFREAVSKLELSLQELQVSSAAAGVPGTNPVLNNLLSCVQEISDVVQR
Chain of FES (P07332 whole entry): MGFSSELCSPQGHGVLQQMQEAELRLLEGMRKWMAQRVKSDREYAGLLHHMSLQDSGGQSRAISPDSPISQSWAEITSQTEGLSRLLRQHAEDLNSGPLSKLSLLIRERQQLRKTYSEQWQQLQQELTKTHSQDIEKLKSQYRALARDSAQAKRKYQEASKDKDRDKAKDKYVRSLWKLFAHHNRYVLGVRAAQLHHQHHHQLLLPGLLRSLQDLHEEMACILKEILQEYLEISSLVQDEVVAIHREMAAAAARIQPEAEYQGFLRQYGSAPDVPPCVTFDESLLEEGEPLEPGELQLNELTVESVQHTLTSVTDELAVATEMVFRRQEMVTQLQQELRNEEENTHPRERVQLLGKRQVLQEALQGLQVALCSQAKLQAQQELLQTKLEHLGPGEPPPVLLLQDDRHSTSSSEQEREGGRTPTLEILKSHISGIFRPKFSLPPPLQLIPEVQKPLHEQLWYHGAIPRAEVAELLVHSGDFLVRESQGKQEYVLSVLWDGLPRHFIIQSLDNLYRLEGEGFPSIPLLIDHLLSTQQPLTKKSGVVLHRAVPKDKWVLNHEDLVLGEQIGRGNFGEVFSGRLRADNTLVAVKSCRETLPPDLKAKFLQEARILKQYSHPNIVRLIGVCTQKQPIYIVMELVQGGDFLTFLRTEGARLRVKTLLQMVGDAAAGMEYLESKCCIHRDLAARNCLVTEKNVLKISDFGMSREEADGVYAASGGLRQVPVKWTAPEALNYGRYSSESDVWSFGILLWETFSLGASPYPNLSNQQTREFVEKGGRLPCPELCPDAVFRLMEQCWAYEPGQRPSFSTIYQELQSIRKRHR

Cc1ccc(NC(=O)c2ccc(CN3CCN(C)CC3)cc2)cc1Nc1nccc(-c2cncc(-c3ccn[nH]3)c2)n1 [Compound 107]
inhibition at 0.5 µM (PDGFRa; Table 1): 59% | inhibition at 0.5 µM (LCK; Table 1): 95% | inhibition at 0.5 µM (SRC; Table 1): 28% | inhibition at 0.5 µM (ABL): 91% | inhibition at 0.5 µM (FLT3; Table 1): 51% | inhibition at 0.5 µM (KIT): 99% | inhibition at 0.5 µM (PDGFRb; Table 1): 101% | inhibition at 0.5 µM (FGR; Table 1): 82% | inhibition at 0.5 µM (LYNA; Table 1): 93% | inhibition at 0.5 µM (ARG/Abl2; Table 1, read-out: Percent inhibition ARG/Abl2): 87% | inhibition at 0.5 µM (FES; Table 1): 28% | inhibition at 0.5 µM (FYN; Table 1): 69% | inhibition at 0.5 µM (JNK2; Table 1): 1.7%

Cc1ccc(NC(=O)c2ccc(CN3CCN(C)CC3)cc2)cc1Nc1nccc(-c2cncc(-c3cnn(C)c3)c2)n1 [Compound 8300]
inhibition at 0.5 µM (YES): 63% | inhibition at 0.5 µM (PDGFRa; Table 2): 99% | inhibition at 0.5 µM (LCK; Table 2): 97% | inhibition at 0.5 µM (SRC; Table 2): 45% | inhibition at 0.5 µM (FLT3; Table 2): 61% | inhibition at 0.5 µM (PDGFRb; Table 2): 98% | inhibition at 0.5 µM (FGR; Table 2): 81% | inhibition at 0.5 µM (LYNA; Table 2): 108% | inhibition at 0.5 µM (ARG/Abl2; Table 2, read-out: Percent inhibition Abl2): 89% | inhibition at 0.5 µM (FES; Table 2): 19% | inhibition at 0.5 µM (FYN; Table 2): 90% | inhibition at 0.5 µM (JNK2; Table 2): 30% | inhibition at 0.5 µM (JNK1): 35% | Percent inhibition CMT (CMT): 88%
